Experimental data: article PMC9534826 (Journal of Applied Glycoscience, 2022)

Tested on: PxXyl43A
Assay: p-nitrophenol release, absorbance at […] nm
Type: biochemical, Paenibacillus xylaniclasticus
Details: pH 7.0, 50 mM potassium phosphate, 54 °C, 1.5 min, 1.8 to 9.0 mM pNPX

- Km: 1200 µM
Compound: O=[N+]([O-])c1ccc(O[C@@H]2OC[C@@H](O)[C@H](O)[C@H]2O)cc1 [pNPX]
